Settings: Liquid, Vibrating tube method

CCCCCCCCCCC [undecane]
mass density [kg/m3]
Settings	313.15 K	323.1 K	333.02 K	342.09 K	352.93 K	362.91 K
1000 kPa	726.6	719	711.3	703.9	696.5	688.8
2000 kPa	–	719.8	–	704.8	697.4	–
2001 kPa	727.3	–	712.1	–	–	689.9
3000 kPa	–	720.6	713	–	–	691
3001 kPa	728	–	–	705.8	698.4	–
4000 kPa	728.7	721.4	713.8	706.7	699.4	692
5000 kPa	729.5	–	714.7	707.6	700.4	–
5001 kPa	–	722.2	–	–	–	693.1
6000 kPa	–	723	715.5	708.5	701.4	–
6001 kPa	730.2	–	–	–	–	694.1
7000 kPa	731	723.8	716.4	709.4	–	–
7001 kPa	–	–	–	–	702.3	695.2
8000 kPa	731.8	724.6	–	710.4	703.3	696.2
8001 kPa	–	–	717.3	–	–	–
9000 kPa	732.6	725.5	718.1	711.2	704.3	697.2
10000 kPa	733.4	–	719	712.2	–	698.2
10001 kPa	–	726.3	–	–	705.2	–
11000 kPa	734.1	727.1	719.9	713.1	706.2	699.2
12000 kPa	734.9	727.9	720.7	714	707.1	–
12001 kPa	–	–	–	–	–	700.2
13000 kPa	735.7	728.7	721.5	714.8	708	701.1
14000 kPa	–	729.5	722.4	715.7	709	–
14001 kPa	736.4	–	–	–	–	702.1
15000 kPa	737.2	–	723.2	716.6	709.8	–
15001 kPa	–	730.3	–	–	–	703
16000 kPa	737.9	731.1	724	717.4	710.7	–
16001 kPa	–	–	–	–	–	704
17000 kPa	738.7	731.9	724.8	718.2	711.6	–
17001 kPa	–	–	–	–	–	704.9
18000 kPa	739.4	732.6	725.6	719.1	712.5	705.8
19000 kPa	740	733.3	726.3	719.9	713.3	–
19001 kPa	–	–	–	–	–	706.6
20000 kPa	740.7	734	727.1	720.6	714.1	707.5
21000 kPa	–	734.7	727.8	721.4	715	708.4
21001 kPa	741.3	–	–	–	–	–
22000 kPa	742	735.4	728.5	722.2	715.7	709.2
23000 kPa	742.6	736	729.2	722.9	716.5	710
23999 kPa	–	–	–	723.6	–	–
24000 kPa	743.2	736.7	729.9	–	717.3	710.9
25000 kPa	743.7	737.3	730.5	724.3	718	711.6
